Results from US10329309B2, “3-(3H-imidazo[4,5-B]pyridin-2-yl)-1H-pyrazolo[4,3-B]pyridines and therapeutic uses thereof” (Samumed, LLC, priority 2015, dated 2019).

How the values were obtained:
[1] = tested on: primary human mesenchymal stem cells (hMSCs); test: Induction of chondrogenesis in primary human mesenchymal stem cells (nodule imaging, Rhodamine B/Nile Red); format: cell-based; conditions: hMSC chondrogenesis; for Emax: TGF-β3 as positive control, read-out: Max. Activity as % TGF-β3 activity; for EC50: concentration required to induce 50% levels of chondrogenesis vs TGF-β3, read-out: Conc (nM) of 50% TGF-β3 activity
Protocol: Representative compounds were screened using primary human mesenchymal stem cells (hMSCs) to determine their ability to induce chondrogenesis (process by which cartilage is developed).
Primary human mesenchymal stem cells (hMSCs) were purchased from Lonza (Walkersville, Md.) and expanded in Mesenchymal Stem Cell Growth Media (Lonza). Cells between passage 3 and 6 were used for the experiments.
Each compound was dissolved in DMSO as a 10 mM stock and used to prepare compound source plates. For the 96 well assay, serial dilution (1:3, 6-point dose-response curves from 2700 nM to 10 nM) and compound transfer was performed using the ECHO 550 (Labcyte, Sunnyvale, Calif.) into 96-well clear bottom assay plates (Greiner Bio-One) with appropriate DMSO backfill for a final DMSO concentration of 0.03%. hMSCs were plated at 20,000 cells/well in 250 μL/well Incomplete Chondrogenic Induction Medium (Lonza; DMEM, dexamethasone, ascorbate, insulin-transferrin-selenium [ITS supplement], gentamycin-amphotericin [GA-1000], sodium pyruvate, proline and L-glutamine). TGF-−3 (10 ng/mL) was used as a positive control for differentiation while negative control wells were treated with 75 nL DMSO for normalization and calculating EC50 values. For the 384 well assay, serial dilution (1:3, 8-point dose-response curves from 5000 nM to 2.2 nM) and compound transfer was performed using the ECHO 550 (Labcyte, Sunnyvale, Calif.) into 384-well clear bottom assay plates (Greiner Bio-One) with appropriate DMSO backfill for a final DMSO concentration of 0.03%. hMSCs were plated at 8,000 cells/well in 80 μL/well Incomplete Chondrogenic Induction Medium (Lonza; DMEM, dexamethasone, ascorbate, insulin-transferrin-selenium [ITS supplement], gentamycin-amphotericin [GA-1000], sodium pyruvate, proline and L-glutamine). TGF-β3 (10 ng/mL) was used as a positive control for differentiation while negative control wells were treated with 25 nL DMSO for normalization and calculating EC50 values. Cells were incubated at 37° C. and 5% CO2 for 6 days. To image chondrogenic nodules, the cells were fixed using 4% formaldehyde (Electron Microscopy Sciences), and stained with 2 μg/mL Rhodamine B (Sigma-Aldrich) and 20 μM Nile Red (Sigma-Aldrich) [Johnson K., et. al, A Stem Cell-Based Approach to Cartilage Repair, Science, (2012), 336(6082), 717-721]. The nodules imaged (25 images per well for 96 well plates and 9 images per well for 384 well plates at 10× magnification) by excitation at 531 nm and emission at 625 nm and quantified using the CellInsight CX5 (Thermo Scientific). Area of nodules in each well was normalized to the average of 3 DMSO treated wells on the same plate using Excel (Microsoft Inc.). The normalized averages (fold change over DMSO) of 2 or 3 replicate wells for each compound concentration were calculated. Due to solubility limitations of some of the compounds, curve fitting was incomplete leading to inaccurate EC50 determinations.
Using TGF-β3 as a positive control, the concentration of representative compounds required to induce 50% levels of chondrogenesis is reported. In addition, the maximum activity of each compound and the respective dose that each compound reached maximum chondrogenesis activity is reported.

IL-6 (THP-1 cells) = test: Inhibition of IL-6 in LPS-stimulated THP-1 monocytes (HTRF); format: cell-based; conditions: Homo sapiens; for EC50: LPS 500 ng/mL, IL-6 by HTRF; for inhibition at 10 µM: LPS stimulated, IL-6, at 10 μM, read-out: percent inhibition at 10 μM (given for EC50 of >10 μM)
How it was run: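 THP-1 cells, serum-starved in 1% FBS for 24 h, were pre-incubated 2 h with compound (10-point, 1:3 from 10 μM, 0.1% DMSO), then stimulated with 500 ng/mL LPS for 22 h at 37 °C. IL-6 was quantified by HTRF 665/620 ratio. EC50 was fitted from DMSO-normalized data; above 10 μM, % inhibition at 10 μM is given.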

SMILES	EC50 [1]	EC50 (IL-6 (THP-1 cells))	Emax [1]	inhibition at 10 µM (IL-6 (THP-1 cells))
CC(C)C(=O)Nc1cncc(-c2ccc3[nH]nc(-c4nc5c(-c6ccccc6F)ccnc5[nH]4)c3n2)c1 [Compound 65, N-(5-(3-(7-(2-fluorophenyl)-3H-imidazo[4,5-b]pyridin-2-yl)-1H-pyrazolo [4,3-b]pyridin-5-yl)pyridin-3-yl)isobutyramide]	10 nM	151 nM	197%	–
CCNCc1cncc(-c2ccc3[nH]nc(-c4nc5c(-c6ccccn6)ccnc5[nH]4)c3n2)c1 [Compound 146, N-((5-(3-(7-(pyridin-2-yl)-3H-imidazo[4,5-b]pyridin-2-yl)-1H-pyrazolo[4,3-b]pyridin-5-yl)pyridin-3-yl)methyl)ethanamine]	–	> 10000 nM	28%	4.5%
CCCCC(=O)Nc1cncc(-c2ccc3[nH]nc(-c4nc5c(-c6ccccn6)ccnc5[nH]4)c3n2)c1 [Compound 159, N-(5-(3-(7-(pyridin-2-yl)-3H-imidazo[4,5-b]pyridin-2-yl)-1H-pyrazolo[4,3-b]pyridin-5-yl)pyridin-3-yl)pentanamide]	100 nM	> 10000 nM	60%	33.6%
CCC(=O)Nc1cncc(-c2ccc3[nH]nc(-c4nc5c(N6CCCCC6)ccnc5[nH]4)c3n2)c1 [Compound 169, N-(5-(3-(7-(piperidin-1-yl)-3H-imidazo[4,5-b]pyridin-2-yl)-1H-pyrazolo[4,3-b]pyridin-5-yl)pyridin-3-yl)propionamide]	–	> 10000 nM	38%	12.7%
CN(C)c1cncc(-c2ccc3[nH]nc(-c4nc5c(N6CCCCC6)ccnc5[nH]4)c3n2)c1 [Compound 175, N,N-dimethyl-5-(3-(7-(piperidin-1-yl)-3H-imidazo[4,5-b]pyridin-2-yl)-1H-pyrazolo [4,3-b]pyridin-5-yl)pyridin-3-amine]	–	> 10000 nM	42%	27.6%
CN(C)Cc1cncc(-c2ccc3[nH]nc(-c4nc5c(N6CCCCC6)ccnc5[nH]4)c3n2)c1 [Compound 181, N,N-dimethyl-1-(5-(3-(7-(piperidin-1-yl)-3H-imidazo[4,5-b]pyridin-2-yl)-1H-pyrazolo[4,3-b]pyridin-5-yl)pyridin-3-yl)methanamine]	–	8300 nM	44%	–
Cc1cn(-c2ccnc3[nH]c(-c4n[nH]c5ccc(-c6cncc(NC(=O)CC(C)C)c6)nc45)nc23)cn1 [Compound 198, 3-methyl-N-(5-(3-(7-(4-methyl-1H-imidazol-1-yl)-3H-imidazo[4,5-b]pyridin-2-yl)-1H-pyrazolo[4,3-b]pyridin-5-yl)pyridin-3-yl)butanamide]	–	> 10000 nM	27%	29.1%
Cc1cn(-c2ccnc3[nH]c(-c4n[nH]c5ccc(-c6cncc(NC(=O)C(C)(C)C)c6)nc45)nc23)cn1 [Compound 204, N-(5-(3-(7-(4-methyl-1H-imidazol-1-yl)-3H-imidazo[4,5-b]pyridin-2-yl)-1H-pyrazolo[4,3-b]pyridin-5-yl)pyridin-3-yl)pivalamide]	10 nM	> 10000 nM	70%	36.3%
Cc1cn(-c2ccnc3[nH]c(-c4n[nH]c5ccc(-c6cncc(CN7CCCC7)c6)nc45)nc23)cn1 [Compound 210, 3-(7-(4-methyl-1H-imidazol-1-yl)-3H-imidazo[4,5-b]pyridin-2-yl)-5-(5-(pyrrolidin-1-ylmethyl)pyridin-3-yl)-1H-pyrazolo[4,3-b]pyridine]	–	> 10000 nM	49%	21.7%
Cc1cn(-c2ccnc3[nH]c(-c4n[nH]c5ccc(-c6cncc(NC(=O)C7CCC7)c6)nc45)nc23)cn1 [Compound 217, N-(5-(3-(7-(4-methyl-1H-imidazol-1-yl)-3H-imidazo[4,5-b]pyridin-2-yl)-1H-pyrazolo[4,3-b]pyridin-5-yl)pyridin-3-yl)cyclobutanecarboxamide]	300 nM	> 10000 nM	69%	35.6%
CN1CCN(c2ccnc3[nH]c(-c4n[nH]c5ccc(-c6cncc(N)c6)nc45)nc23)CC1 [Compound 227, 5-(3-(7-(4-methylpiperazin-1-yl)-3H-imidazo[4,5-b]pyridin-2-yl)-1H-pyrazolo[4,3-b]pyridin-5-yl)pyridin-3-amine]	–	> 10000 nM	47%	51.9%
CC(C)C(=O)Nc1cncc(-c2ccc3[nH]nc(-c4nc5c(N6CCN(C)CC6)ccnc5[nH]4)c3n2)c1 [Compound 233, N-(5-(3-(7-(4-methylpiperazin-1-yl)-3H-imidazo[4,5-b]pyridin-2-yl)-1H-pyrazolo [4,3-b]pyridin-5-yl)pyridin-3-yl)isobutyramide]	900 nM	> 10000 nM	62%	16.4%
c1cncc(-c2ccc3[nH]nc(-c4nc5cccnc5[nH]4)c3n2)c1 [Compound 256, 3-(3H-imidazo[4,5-b]pyridin-2-yl)-5-(pyridin-3-yl)-1H-pyrazolo[4,3-b]pyridine]	10 nM	> 10000 nM	74%	24.4%

More lines, main results first:

EC50 [1]	EC50 (IL-6 (THP-1 cells))	SMILES	Emax [1]	inhibition at 10 µM (IL-6 (THP-1 cells))
10 nM	2120 nM	Nc1cncc(-c2ccc3[nH]nc(-c4nc5c(-c6ccccc6F)ccnc5[nH]4)c3n2)c1 [Compound 59, 5-(3-(7-(2-fluorophenyl)-3H-imidazo[4,5-b]pyridin-2-yl)-1H-pyrazolo[4,3-b]pyridin-5-yl)pyridin-3-amine]	127%	–
–	984 nM	CC(C)C(=O)Nc1cncc(-c2ccc3[nH]nc(-c4nc5c(-c6cccnc6)ccnc5[nH]4)c3n2)c1 [Compound 93, N-(5-(3-(7-(pyridin-3-yl)-3H-imidazo[4,5-b]pyridin-2-yl)-1H-pyrazolo[4,3-b]pyridin-5-yl)pyridin-3-yl)isobutyramide]	26%	–
100 nM	> 10000 nM	Cc1ccncc1-c1ccc2[nH]nc(-c3nc4c(-c5ccncc5)ccnc4[nH]3)c2n1 [Compound 117, 5-(4-methylpyridin-3-yl)-3-(7-(pyridin-4-yl)-3H-imidazo[4,5-b]pyridin-2-yl)-1H-pyrazolo[4,3-b]pyridine]	147%	18.6%
10 nM	> 10000 nM	O=C(Cc1ccccc1)Nc1cncc(-c2ccc3[nH]nc(-c4nc5c(-c6ccncc6)ccnc5[nH]4)c3n2)c1 [Compound 122, 2-phenyl-N-(5-(3-(7-(pyridin-4-yl)-3H-imidazo[4,5-b]pyridin-2-yl)-1H-pyrazolo[4,3-b]pyridin-5-yl)pyridin-3-yl)acetamide]	63%	27%
–	> 10000 nM	CCCC(=O)Nc1cncc(-c2ccc3[nH]nc(-c4nc5c(-c6ccncc6)ccnc5[nH]4)c3n2)c1 [Compound 129, N-(5-(3-(7-(pyridin-4-yl)-3H-imidazo[4,5-b]pyridin-2-yl)-1H-pyrazolo[4,3-b]pyridin-5-yl)pyridin-3-yl)butyramide]	50%	14.9%
10 nM	> 1000 nM	O=C(Nc1cncc(-c2ccc3[nH]nc(-c4nc5c(-c6ccncc6)ccnc5[nH]4)c3n2)c1)C1CCCCC1 [Compound 135, N-(5-(3-(7-(pyridin-4-yl)-3H-imidazo[4,5-b]pyridin-2-yl)-1H-pyrazolo[4,3-b]pyridin-5-yl)pyridin-3-yl)cyclohexanecarboxamide]	69%	22.1%
